Assay results taken from patent US20210346357A1 (priority 2020, published 2021).

Tested on: Symptomatic Acute Lung Injury Associated with COVID-19
Experiment: Phase 2 study Part 1, inhaled compound 1 in hospitalized COVID-19 patients
Settings: for # Subjects Respiratory Failure-Free / # Subjects Alive: number of subjects; for IFN-γ, within-group percent difference in geometric mean from baseline / IL-6, within-group percent difference in geometric mean from baseline / IL-8, within-group percent difference in geometric mean from baseline / IL-10, within-group percent difference in geometric mean from baseline / IP-10, within-group percent difference in geometric mean from baseline / MCP-1, within-group percent difference in geometric mean from baseline / MDC, within-group percent difference in geometric mean from baseline / RAGE, within-group percent difference in geometric mean from baseline / TARC, within-group percent difference in geometric mean from baseline / hsCRP, within-group percent difference in geometric mean from baseline: matched D1 and D7 samples; for Time to Hospital Discharge (Days) Mean ± SD: still hospitalized or died = 28 days; for # Subjects Alive, percent / Died (All-Cause Mortality), number / # Subjects Alive: through Day 28
[1] = COVID-19 patients, 3 mg, Day 28
[2] = COVID-19 patients, 10 mg, Day 7
[3] = COVID-19 patients, 10 mg, Day 14
[4] = COVID-19 patients, 10 mg, Day 21
[5] = COVID-19 patients, 10 mg, Day 28
[6] = mostly in the 3 mg and 10 mg doses

SMILES: CCc1cc(O)ccc1-c1ccc2c(-c3nc4c([nH]3)CN(C(C)C)[C@H](C(=O)N3CC(N(C)C)C3)C4)n[nH]c2c1 [Compound 1, (S)-(3-(dimethylamino)azetidin-1-yl)(2-(6-(2-ethyl-4-hydroxyphenyl)-1H-indazol-3-yl)-5-isopropyl-4,5,6,7-tetrahydro-3H-imidazo[4,5-c]pyridin-6-yl)methanone]
- Hospital Discharge, number [1]: 7
- Hospital Discharge, percent [1]: 100%
- Proportion of Subjects Alive and Respiratory Failure-free [1]: 85.7%
- Proportion of Subjects Alive and Respiratory Failure-free, number [1]: 6
- # Subjects Respiratory Failure-Free [1]: 6
- IFN-γ, within-group percent difference in geometric mean from baseline (COVID-19 patients, 3 mg): −90.42%
- IL-6, within-group percent difference in geometric mean from baseline (COVID-19 patients, 3 mg): −80.24%
- IL-8, within-group percent difference in geometric mean from baseline (COVID-19 patients, 3 mg): −48.02%
- IL-10, within-group percent difference in geometric mean from baseline (COVID-19 patients, 3 mg): −70.10%
- IP-10, within-group percent difference in geometric mean from baseline (COVID-19 patients, 3 mg): −81.44%
- MCP-1, within-group percent difference in geometric mean from baseline (COVID-19 patients, 3 mg): −54.15%
- MDC, within-group percent difference in geometric mean from baseline (COVID-19 patients, 3 mg): −23.84%
- RAGE, within-group percent difference in geometric mean from baseline (COVID-19 patients, 3 mg): −82.95%
- TARC, within-group percent difference in geometric mean from baseline (COVID-19 patients, 3 mg): −34.57%
- hsCRP, within-group percent difference in geometric mean from baseline (COVID-19 patients, 3 mg): −74.95%
- Time to Hospital Discharge (Days) Mean ± SD (COVID-19 patients, 3 mg): 15.29 ± 6.651 days
- # Subjects Alive, percent (COVID-19 patients, 3 mg): 100.0%
- Died (All-Cause Mortality), number (COVID-19 patients, 3 mg): 0
- # Subjects Alive (COVID-19 patients, 3 mg): 7
- Clinical Status at Day 28: 1-Not hospitalized, no limitations on activities, number (COVID-19 patients, 10 mg): 5
- Clinical Status at Day 28: 1-Not hospitalized, no limitations on activities, percent (COVID-19 patients, 10 mg): 83.3%
- Clinical Status at Day 28: 2-Not hospitalized, but with limitations on activities and/or requiring home oxygen, number (COVID-19 patients, 10 mg): 1
- Clinical Status at Day 28: 2-Not hospitalized, but with limitations on activities and/or requiring home oxygen, percent (COVID-19 patients, 10 mg): 16.7%
- Clinical Status at Day 28: 3-Hospitalized, not requiring supplemental oxygen, and no longer requiring ongoing medical care, number (COVID-19 patients, 10 mg): 0
- Clinical Status at Day 28: 4-Hospitalized, not requiring supplemental oxygen, but requiring ongoing medical care, number (COVID-19 patients, 10 mg): 0
- Clinical Status at Day 28: 5-Hospitalized, requiring supplemental oxygen, number (COVID-19 patients, 10 mg): 0
- Clinical Status at Day 28: 6-Hospitalized, on non-invasive ventilation or high-flow oxygen devices, number (COVID-19 patients, 10 mg): 0
- Clinical Status at Day 28: 7-Hospitalized, on invasive mechanical ventilation or extracorporeal membrane oxygenation, number (COVID-19 patients, 10 mg): 0
- Clinical Status at Day 28: 8-Death, number (COVID-19 patients, 10 mg): 0
- Still in Hospital at Day 28, number (COVID-19 patients, 10 mg): 0
- Time to Hospital Discharge (Days) Median (COVID-19 patients, 10 mg): 16.50 days
- Modified Borg Dyspnea Score, Baseline, Mean (COVID-19 patients, 10 mg group, baseline value): 6.00
- Modified Borg Dyspnea Score Change from Baseline, Mean (COVID-19 patients, 10 mg, Day 2): −0.33
- Modified Borg Dyspnea Score Change from Baseline, Mean (COVID-19 patients, 10 mg, Day 3): −1.17
- Modified Borg Dyspnea Score Change from Baseline, Mean (COVID-19 patients, 10 mg, Day 4): −1.50
- Modified Borg Dyspnea Score Change from Baseline, Mean (COVID-19 patients, 10 mg, Day 5): −1.17
- Modified Borg Dyspnea Score Change from Baseline, Mean (COVID-19 patients, 10 mg, Day 6): −1.33
- Hospital Discharge, number [2]: 0
- Modified Borg Dyspnea Score Change from Baseline, Mean [2]: −1.67
- Hospital Discharge, number [3]: 2
- Hospital Discharge, percent [3]: 33.3%
- Hospital Discharge, number [4]: 6
- Hospital Discharge, percent [4]: 100%
- # Subjects Respiratory Failure-Free, percent [5]: 100.0%
- Hospital Discharge, number [5]: 6
- Hospital Discharge, percent [5]: 100%
- Proportion of Subjects Alive and Respiratory Failure-free [5]: 100.0%
- Proportion of Subjects Alive and Respiratory Failure-free, number [5]: 6
- # Subjects Respiratory Failure-Free [5]: 6
- IFN-γ, within-group percent difference in geometric mean from baseline (COVID-19 patients, 10 mg): −78.59%
- IL-6, within-group percent difference in geometric mean from baseline (COVID-19 patients, 10 mg): −58.84%
- IL-8, within-group percent difference in geometric mean from baseline (COVID-19 patients, 10 mg): −25.87%
- IL-10, within-group percent difference in geometric mean from baseline (COVID-19 patients, 10 mg): −40.57%
- IP-10, within-group percent difference in geometric mean from baseline (COVID-19 patients, 10 mg): −79.32%
- MCP-1, within-group percent difference in geometric mean from baseline (COVID-19 patients, 10 mg): −21.15%
- MDC, within-group percent difference in geometric mean from baseline (COVID-19 patients, 10 mg): −6.70%
- RAGE, within-group percent difference in geometric mean from baseline (COVID-19 patients, 10 mg): −54.44%
- TARC, within-group percent difference in geometric mean from baseline (COVID-19 patients, 10 mg): −21.21%
- hsCRP, within-group percent difference in geometric mean from baseline (COVID-19 patients, 10 mg): −52.13%
- Time to Hospital Discharge (Days) Mean ± SD (COVID-19 patients, 10 mg): 15.17 ± 4.446 days
- # Subjects Alive, percent (COVID-19 patients, 10 mg): 100.0%
- Died (All-Cause Mortality), number (COVID-19 patients, 10 mg): 0
- # Subjects Alive (COVID-19 patients, 10 mg): 6
- tolerability (COVID-19 patients, single daily dose of 1 mg, 3 mg, and 10 mg for up to 7 days): generally well tolerated
- % subjects alive/reduced mortality, compared to Placebo (all compound 1 groups): positive trend
- % subjects respiratory-failure free at Day 28, compared to Placebo (all compound 1 groups): positive trend
- clinical improvement, 8-point Clinical Status Scale from Day 1 to Day 28, compared to Placebo (all compound 1 groups): positive trend
- earlier time to hospital discharge, compared to Placebo (all compound 1 groups): positive trend
- improvement in Modified Borg Dyspnea Score in mean change from baseline at Day 7, compared to Placebo (all compound 1 groups): positive trend
- reduction in alveolar epithelial cell injury marker RAGE [6]: positive trend
- reduction of inflammation markers including hsCRP, IFN-g, IL-6, IP-10 [6]: positive trend
